Assay results: patent publication US8178509B2, “Method to treat sickle cell disease” (University of Virginia Patent Foundation, priority 2006, dated 2012)

Experiments:
C57BL/6 MAECs = assay: Static WEHI monocyte adhesion assay on murine aortic endothelial cells; type: cell-based, C57BL/6 mice; conditions: murine TNFα 10 U/ml, positive control
Experimental: Adhesion of both sickle RBCs and leukocytes in SCD is believed dependent on endothelial activation. […] Murine aortic endothelial cells (MAECs) were prepared from C57BL/6 and NY-S (NY1DD) mice. In a static adhesion assay using WEHI monocytes activation of the endothelium as manifested by increasing monocyte adhesion can be quantified. MAECs prepared from C57BL/6 mice form a monolayer which is not highly activated as assessed by the small number of adherent monocytes. As a positive control for endothelial activation C57BL/6 MAECs were stimulated with murine TNFα (10 U/ml). […] Clearly, the endothelium of NY-S (NY1DD) sickle mice is in a state of activation at baseline.
Aortic endothelial cells from C57BL/6J and NY-S (NY1DD) mice were harvested from the aorta under sterile conditions. A monocyte adhesion assay that utilizes primary MAECs and WEHI78/24 cells were performed according to Hatley et al. WEHI cells are labeled with calcein-AM using standard methods described by the manufacturer (Molecular Probes). For the adhesion assay, MAECs were cultured to confluency in a 48-well plate and incubated with 35,000 calcein-labeled WEHI cells/well for 30 min at 37° C. Non-adherent cells were rinsed, and adherent cells were fixed with 1% glutaraldehyde. The number of adherent monocytes within a 10×10 eyepiece grid at 40× magnification was counted using an epifluorescence microscopy. […]

platelets = assay: Platelet aggregation (singlet loss) in platelet-rich plasma after in vivo pretreatment, ADP activation; set-up: species or system NY-S (NY1DD) mice; conditions: pretreated in vivo, Alzet mini-pump, 10 ng/kg/min, O/N; all doses of ADP added in vitro
Experimental: Adenosine 5′-diphosphate (ADP) is a critical mediator of platelet activation. Two members of the P2Y-receptor family (P2Y1, P2Y12) are responsible for the initiation and amplification of the aggregation response.
Mice were first anesthetized with the use of a vaporizer (Vapomatic, A.M. Bickford, INC., Wales Center, N.Y.) delivering 1.5% isoflurane (Abbott Laboratories, Chicago, Ill.). The animals were ventilated with 100% oxygen (tidal volume 0.3 mL; rate 125 breaths/min; respiratory/expiratory ratio 1; positive end-expiratory pressure (PEEP) was between 5 and 10 cm H2O) at a low rate of 0.8 L/min via an animal ventilator (Columbus Instruments, Columbus, Ohio).
Platelet isolation. […]
Platelet aggregation assay—single particle counting. […] The reaction was quenched with glutaraldehyde (1%), and platelet aggregation then evaluated by the loss of platelet singlets, using a resistive-particle counter. The loss of platelet singlets was expressed as a percent value of the control platelet count (platelet count in PRP incubated for 10 minutes in 37° C. in the absence of shear forces).

NY-S (NY1DD) mice [1] = assay: Gamma camera imaging of hypoxia-sensitive tracer BRU59-21 in lungs; type: in vivo; conditions: 3 hours hypoxia (10% O2)/1 hour reoxygenation; Alzet mini-pump, 10 ng/kg/min, O/N; untreated vs treated
Experimental: Animals were subject to 3 hours hypoxia (10% O2)/1 hour reoxygenation. After 30 minutes of reoxygenation the mice were given a bolus intra-jugular injection of BRU59-21 (˜300 μCi). At the end of the reoxygenation period planar gamma camera images were taken with a ten minute acquisition window. The images in FIG. 7 show tracer accumulation in the tissues of hypoxic C57BL/6 and NY-S (NY1DD) mice. […] There is a large non-specific signal present in the abdomen due to hepatic metabolism and clearance of the tracer via the intestinal tract. Anterior to the abdominal signal is a bilateral signal which is absent from the C57/B6 mice and localized to the lungs in the NY-S (NY1DD) mouse.
C57BL/6 and NY-S (NY1DD) mice were subject to 3 hour hypoxia/1 hour reperfusion (10% O2). Thirty minutes after the start of the reperfusion period the mice were anesthetized (ketamine 125 mg/kg; xylazine 12.5 mg/kg, IP) and given a bolus intra jugular injection of BRU59-21 (˜300 μCi). At the end of the reperfusion period planar gamma camera images were collected. Anesthetized mice were imaged side-by-side in planar mode directly on the inverted face of a low energy, high resolution (LEHR) collimator mounted on a Siemens Orbiter gamma camera (Siemens Medical Solutions USA, Inc., Malvern Pa.). […]

[2] = tested on: leukocyte interactions with the endothelium; assay: Intravital microscopy of exteriorized cremaster muscle, leukocyte adhesion; type: in vivo, NY-S (NY1DD) mice; conditions: no hypoxia
Source text: An exteriorized cremaster muscle preparation was used to study the microcirculation in vivo as a means of assaying the effect of the test compounds, e.g., ATL146e, on leukocyte interactions with the endothelium. […] In this experiment, mice were not stressed with hypoxia, but the manipulation of the cremaster tissue for microscopic examination itself produces some rolling and adherence of leukocytes, probably due to release of chemokines from damaged tissue. Adherent leukocytes were defined as those which moved less than one circumference in an observational period (30 seconds/vessel). […]
Microscopic observations were made on a Zeiss intravital microscope (Axioskop, Carl Zeiss, Inc., Thomwood, N.Y.) with a saline immersion objective (SW 40/0.75) visualized under bright field illumination. […] Randomly selected venules with diameters between 19 and 54 μm were recorded for 1.5 minutes.
A MicroMotion DC30 video compression card (Pinnacle Systems, Mountain View, Calif.) was used to digitize video recordings from a JVC HR-53600U VHS recorder into a Macintosh computer (Adobe Premiere software). Digitized video clips were analyzed with the public domain NIH image program with custom-written macros. […] Individual comparisons between groups were calculated using a one-tailed t test with p<0.05.

NY-S (NY1DD) mice [3] = assay: Pulmonary histology (H&E), hypoxia-induced vascular congestion; type: in vivo; conditions: 3 hour hypoxia (10% O2); Alzet mini-pump, 10 ng/kg/min, overnight, started prior to hypoxic stress
Experimental: Under normoxic conditions, while the lungs of the wild type mice are clear, there is a high incidence of focal vascular congestion in the NY-S (NY1DD) mice (FIGS. 6A & 6B, see arrows). The disseminated pink color throughout the section may be due to elevated numbers of possibly adherent capillary red cells. The extent of vascular congestion is exacerbated in the NY-S (NY1DD) mice following 3 hour of hypoxia (10% O2; FIG. 6c). The increased susceptibility of the NY-S (NY1DD) mice to hypoxia-induced lung injury is evidenced both as an increase in the total area of involvement and the size of the vessels congested (see arrow, FIG. 6C).

NY-S (NY1DD) mice [4] = assay: Unrestrained whole-body plethysmography during hypoxic stress; type: in vivo; conditions: 3 hour hypoxic stress (8% O2), Alzet pump, 10 ng/kg/min, overnight
Experimental: Clinicians have disclosed that breathing disorders can occur in SCD patients during vaso-occlusive crisis (VOC). […] Pain-associated shallow breathing during sickle crisis may contribute to the pathogenesis of acute chest syndrome. To characterize the extent of hypoxia-induced lung injury in NY-S (NY1DD) mice, pulmonary function was assessed using unrestrained whole-body plethysmography during and after exposure to hypoxic air. Naïve NY-S (NY1DD) mice were compared to NY-S (NY1DD) mice which had been treated with ATL146e (Alzet pump, 10 ng/kg/min, overnight). […] Plexiglas chambers (4 in diameter) are connected to a direct airflow sensor (Buxco Max II, Buxco Electronics). Constant airflow through the chambers is maintained at 70 ml/min. The flow signals are amplified by a channel amplifier (EMKA Technologies), converted to a digital signal, and recorded using IOX software (EMKA Technologies). The respiratory parameters minute ventilation (MV, ml/min), respiratory frequency (f, breaths/min), expiratory time (TE, msec), and relaxation time (RT, msec) are calculated and plotted as change over time. The chambers are calibrated by injecting 1 ml of air. The mice are placed unrestrained into the chambers and after a 30 min adjustment period, respiratory activity is recorded while the animal breathes either ambient air or hypoxic gas (8% O2).

TNFα
number of monocytes captured (endothelial activation) (C57BL/6 MAECs): three-fold increase

CCNC(=O)C1OC(n2cnc3c(N)nc(C#CCC4CCC(C(=O)OC)CC4)nc32)C(O)C1O (centres unmarked) [ATL146e, 4-{3-[6-Amino-9-(5-ethylcarbamoyl-3,4-dihydroxy-tetrahydro-furan-2-yl)-9H-purin-2-yl]-prop-2-ynyl}cyclohexanecarboxylic acid methyl ester]
platelet activation in platelet rich plasma (platelets): reduced to below control levels
lung-specific BRU59-21 signal intensity in thoracic cavity (qualitative) (NY-S (NY1DD) mice [1]): significantly more lung-specific signal in the untreated mice
leukocyte adhesion (adherent leukocytes/field) ([2]; bolus injection, intraperitoneal, 5 μg/kg, 30 minutes prior to cremaster exteriorization): pronounced reduction in leukocyte adhesion
leukocyte adhesion (adherent leukocytes/field) ([2]; infusion, Alzet mini-pump, 10 ng/kg/min, overnight): pronounced reduction in leukocyte adhesion
severity of hypoxia-induced vascular congestion in lung (NY-S (NY1DD) mice [3]): significantly reduced
minute volume (NY-S (NY1DD) mice [4]): respiratory stress of hypoxia was alleviated
breathing frequency (NY-S (NY1DD) mice [4]; n=2 each group): significantly reduced
